Results on four compounds are retold here after patent US20220023291A1, “COMPOSITIONS AND METHODS FOR REGULATING INFLAMMATION” (University of Virginia Patent Foundation, priority 2018, published 2022).

“Also recorded” adds a separate entry of the source.

For one series, the system named is muscarinic receptor. To be noted: cited from earlier work.
The test system of the next series is tau hyperphosphorylation. The conditions noted are these: cited from earlier work.
In a further series the test system is mice. To be noted: mice treated with scopolamine, synthetic Aβ oligomer injection, or dizocilpine; cited from earlier work.
The next series concerns the target sigma-1 receptor (Homo sapiens, UniProt Q99720). To be noted: cited from earlier work.
For series [1] the following is noted: pre-clinical tests; cited from earlier work.
Series [2] relates to transgenic (3×Tg-AD) mice. To be noted: cited from earlier work.
Series [3] concerns the target T1, IRE1 endonuclease activity (Mus musculus, UniProt Q9EQY0).
T1 construct: We prepared bone marrow derived macrophages (BMDM) from WT and S1R KO mice; endogenous in cells; host or cells: primary mouse bone marrow derived macrophages (WT and S1R KO, C57BL/6J background)
Nature of the series: XBP1 splicing ratio by qPCR in BMDM. The conditions noted are these: WT and S1R KO BMDM, 100 ng/mL LPS + 5 μM 4μ8C, 6 hours. It is filed as cell-based. As to the method: (§1) Tissue culture conditions and Reagents. HEK293 cells, primary lung fibroblasts and BMDM were isolated and maintained as described (41-43). Cells were treated with LPS (Sigma, L4391), 4μ8C (Tocris, 4479), tunicamycin (Tocris, 3516), PD98059 (Medchem Express HY-12028), JSH-23 (Medchem Express, Hy-13982), SP600125 (Medchem Express, HY-12041), cycloheximide (Tocris, 0970), lactacystin (Cayman Chemical, 70980), chloroquine (Fisher, ICN19391925), and STF 083010 (Medchem Express, HY-15845) as described in the text.
(§2) cDNA synthesis and quantitative RT-PCR. Total RNA was extracted using an ISOLATE II RNA (Bioline, 52073) and cDNA synthesis was performed with the ISCRIPT™ kit (Bio-Rad, 170-8891). TaqMan Probes were obtained from Life Technologies (GAPDH: Mm99999915_g1; IL-6: Mm00446190_m1; pro-IL-1β: Mm00434228_m1; TNFα: Mm00443258_m1). Primers for IRE1 detection were GCACGUGAAUUGAUAGAGA (SEQ ID NO: 10) and UCUCUAUCAAUUCACGUGC (SEQ ID NO: 11). Primers for the detection of XBP1 were previously published (Lipson et al., 2008). RT-PCR was performed as described previously (Gaultier et al., 2009).
(§3) cDNA synthesis and quantitative PCR. Total RNA was extracted using an ISOLATE II RNA kit (Bioline, 52073) and cDNA synthesis was performed with the SENSIFAST™ cDNA synthesis kit (Bioline, BIO-65054). TaqMan Probes were obtained from Thermo Fisher (GAPDH: Mm99999915_g1; IL-6: Mm00446190_m1; pro-IL-1β: Mm00434228_m1; IL10: Mm004396). Primers for the detection of XBP1, IL-8, and actin were previously published (Vandesompele et al., 2002; Kumar & Valdivia, 2008; Girard et al., 2009). qPCR was performed as described previously (Gaultier et al., 2008).
(Quantitative PCR measures a nucleic acid by following its amplification.)

In series [4] the test system is BMDM. Briefly: IL-6 ELISA on supernatant of LPS-stimulated BMDM. In kind it is cell-based, mouse. To be noted: 1 μg/mL LPS, 6 hours; 20 μM JSH-23, 20 μM PD98059, 1 μM SP600125, 5 μM 4μ8C. The procedure: as §1
(§4) ELISA. ELISA for IL-6 and TNFα were performed as previously described (Remick et al., 2002). Antibodies used were: anti-mouse IL-6 MP5-20F3 (Biolegend, 504501) 0.5 μg/mL; biotin anti-mouse IL-6 MP5-32C11 (Biolegend, 504601) 1 μg/mL; anti-mouse TNFα (R&D systems, AF-410-NA) 0.5 μg/mL; biotin anti-mouse TNFα (R&D systems, BAF410) 0.25 μg/mL.
Tissue culture conditions and Reagents. HEK293 mTLR4/MD2/CD14 (Invivogen, 293-mtlr4md2cd14), primary lung fibroblasts, and BMDM were isolated and maintained as described (Zhang et al., 2008; Seluanov et al., 2010). Cells and animals were treated with LPS (Sigma, L4391), 4μ8C (Tocris, 4479), APY-29 (Medchem Express HY-17537), PD98059 (Medchem Express HY-12028), JSH-23 (Medchem Express, HY-13982), SP600125 (Medchem Express, HY-12041), STF 083010 (Medchem Express, HY-15845), Fluvoxamine (Medchem Express, HY-B0103A), and Ceftriaxone (Hospira, NDC: 0409-7337-01), as described in the text.
ELISA. ELISA for IL-6 and TNF-α were performed as previously described (Remick et al., 2002). Antibodies used were: anti-mouse IL-6 MP5-20F3 (Biolegend, 504501) 0.5 μg/mL; biotin anti-mouse IL-6 MP5-32C11 (Biolegend, 504601) 1 μg/mL; anti-mouse TNF-α (R&D systems, AF-410-NA) 0.5 μg/mL; biotin anti-mouse TNF-α (R&D systems, BAF410) 0.25 μg/mL.
On the technique in general: An ELISA detects its analyte on a solid surface through an enzyme-linked reagent.

For series [5] the following is noted: cited from earlier work.
For another series, the system named is IRE1 transcript. Nature of the series: qPCR for IRE1 expression in BMDM. To be noted: S1R KO BMDM, 5 μM 4μ8C. In kind it is cell-based, mouse. As to the method:
as §2

A further series deals with primary lung fibroblasts. Nature of the series: IL-6 ELISA on supernatant of LPS-stimulated primary lung fibroblasts. It is filed as cell-based, mouse. The conditions noted are these: 1 μg/mL LPS + 5 μM 4μ8C, 6 hours. The procedure: as §1, §4
Tissue culture conditions and Reagents. HEK293 mTLR4/MD2/CD14 (Invivogen, 293-mtlr4md2cd14), primary lung fibroblasts, and BMDM were isolated and maintained as described (Zhang et al., 2008; Seluanov et al., 2010). […]

For series [6], the system named is BMDM. Nature of the series: qPCR for pro-inflammatory cytokine expression in LPS-treated BMDM. It is filed as cell-based, mouse. To be noted: 100 ng/mL LPS + 5 μM 4μ8C, 6 hours. As to the method: as §2, §3

T1 sequence (Q9EQY0 21-977): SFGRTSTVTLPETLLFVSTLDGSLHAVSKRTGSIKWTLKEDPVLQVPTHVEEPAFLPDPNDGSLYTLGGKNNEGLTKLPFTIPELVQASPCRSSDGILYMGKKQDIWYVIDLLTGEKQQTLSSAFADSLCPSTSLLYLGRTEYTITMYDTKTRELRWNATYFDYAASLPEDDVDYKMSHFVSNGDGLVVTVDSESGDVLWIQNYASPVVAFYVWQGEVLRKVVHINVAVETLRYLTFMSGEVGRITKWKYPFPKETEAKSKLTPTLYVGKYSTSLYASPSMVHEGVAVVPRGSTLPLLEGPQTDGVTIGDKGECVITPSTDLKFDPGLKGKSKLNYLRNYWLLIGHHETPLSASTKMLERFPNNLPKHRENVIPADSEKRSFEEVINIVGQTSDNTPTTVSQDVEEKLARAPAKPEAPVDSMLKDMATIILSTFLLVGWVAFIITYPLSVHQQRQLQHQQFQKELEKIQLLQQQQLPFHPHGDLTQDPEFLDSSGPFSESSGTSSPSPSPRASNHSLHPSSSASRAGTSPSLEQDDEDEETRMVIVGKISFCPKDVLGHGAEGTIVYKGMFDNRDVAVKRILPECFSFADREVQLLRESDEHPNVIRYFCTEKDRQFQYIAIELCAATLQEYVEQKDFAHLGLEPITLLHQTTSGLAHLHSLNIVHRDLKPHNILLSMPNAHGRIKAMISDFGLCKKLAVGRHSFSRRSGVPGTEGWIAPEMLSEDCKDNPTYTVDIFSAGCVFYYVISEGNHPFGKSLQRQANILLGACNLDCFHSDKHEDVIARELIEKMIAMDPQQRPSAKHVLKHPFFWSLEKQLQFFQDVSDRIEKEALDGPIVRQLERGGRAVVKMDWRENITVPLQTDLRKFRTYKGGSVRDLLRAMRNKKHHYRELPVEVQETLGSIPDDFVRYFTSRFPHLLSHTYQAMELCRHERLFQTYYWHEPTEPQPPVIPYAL
Sequence of sigma-1 receptor (Q99720 whole entry): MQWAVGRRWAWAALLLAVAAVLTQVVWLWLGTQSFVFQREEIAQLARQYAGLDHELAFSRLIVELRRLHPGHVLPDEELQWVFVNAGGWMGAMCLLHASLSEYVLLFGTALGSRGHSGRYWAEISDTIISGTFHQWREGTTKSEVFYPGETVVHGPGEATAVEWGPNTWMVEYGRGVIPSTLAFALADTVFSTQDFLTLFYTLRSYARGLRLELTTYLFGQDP

As for `CN(C)CC1CCOC1(c1ccccc1)c1ccccc1.Cl` (centres unmarked) [ANAVEX® 2-73, tetrahydro-N,N-dimethyl-2,2-diphenyl-3-furanmethanamine hydrochloride], the “Binding to the muscarinic receptor” value with muscarinic receptor is recorded as “low micromolar range”. For the same compound, in the series on tau hyperphosphorylation, the Tau hyperphosphorylation entry was “may block tau hyperphosphorylation”. The “Memory and neuroprotection effects” value in the series with mice was “memory-preserving and neuroprotective effects”. Besides, the “Affinity for / binding to sigma-1 receptor (S1R)” value at sigma-1 receptor is “high nanomolar range”.
For `CN(C)CC1COC(c2ccccc2)(c2ccccc2)C1.Cl` (centres unmarked) [ANAVEX® 1-41, tetrahydro-N,N-dimethyl-5,5-di phenyl-3-furanmethanamine hydrochloride], the Neuroprotective benefits result in series [1] was “significant neuroprotective benefits”.
On to `CC1SC2(CCN(C)CC2)CN1C(=O)CCc1c[nH]c2ccccc12` (centres unmarked) [ANAVEX® 3-71, 1-(2,8-dimethyl-1-thia-3,8-diazaspiro(4.5)dec-3-yl)-3-(1H-indol-3-yl)propan-1-one], for which, in series [2], the “Effect on major Alzheimer's hallmarks (cognitive deficits, amyloid and tau pathologies)” value was “highly effective in very small doses”.
Consider `Cc1cc(=O)oc2c(C=O)c(O)ccc12` [4μ8C, 7-Hydroxy-4-methyl-2-oxo-2H-1-benzopyran-8-carboxaldehyde], for which, in series [3], the “LPS induced XBP1 splicing” value is on record as “completely abolished”. In addition, the “Difference in LPS-induced IL-6 secretion between WT and S1R KO BMDM” value with BMDM [4] is given as “rescued IL-6 secretion in S1R KO cells to the levels observed in control BMDM”. In addition, the Half-life in vivo result in [5] was “short half-life”. Moreover, the IRE1 transcript levels entry in the series with IRE1 transcript was “restores IRE1 transcript levels to those observed in WT BMDM”. Moreover, the “IL-6 / cytokine secretion by lung fibroblasts upon LPS stimulation” value with primary lung fibroblasts was “marked decrease of cytokine secretion”. Besides, the “Potentiated cytokine expression in S1R KO BMDM relative to WT (qPCR)” value in the series on BMDM [6] was “inhibits potentiation of cytokine expression in S1R KO BMDM; also recorded: reversed IL-6 expression in KO cells to the amount observed in WT BMDM”. In the series with BMDM [6] (WT and S1R KO BMDM), the “IL-1β expression (qPCR)” value is reported as “decreases” and the “IL-6 expression (qPCR)” value is listed as “decreases”.
